Test results published in patent publication US4657897A, “N^6 -substituted adenosines for treating pain” (Warner-Lambert Company, priority 1985, dated 1987).

Experiments:
adenosine A1 receptor = target: T1, adenosine A1 receptor (Rattus norvegicus, UniProt P25099); experiment: Adenosine Receptor Binding--A1 Receptor Affinity (RBA1), [3H]-CHA binding, rat whole brain membranes; parameters: species or system rat (male Long Evans); conditions: 1.0 nM [3H]-CHA, 25° C., 1 h
T1 construct: Whole brain minus cerebellum and brainstem from male Long Evans rats; from tissue; host or cells: rat whole brain minus cerebellum and brainstem (male Long Evans), membranes
T1 sequence (P25099 1-326): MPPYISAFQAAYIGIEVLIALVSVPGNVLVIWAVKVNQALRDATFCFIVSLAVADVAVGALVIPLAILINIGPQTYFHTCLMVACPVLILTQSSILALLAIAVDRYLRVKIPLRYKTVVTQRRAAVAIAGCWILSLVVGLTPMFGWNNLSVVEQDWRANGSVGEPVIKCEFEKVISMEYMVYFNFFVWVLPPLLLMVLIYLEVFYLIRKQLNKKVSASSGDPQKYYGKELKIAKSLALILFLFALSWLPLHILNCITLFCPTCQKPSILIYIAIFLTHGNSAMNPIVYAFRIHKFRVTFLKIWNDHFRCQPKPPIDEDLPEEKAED
Procedure: Adenosine Receptor Binding--A1 Receptor Affinity (RBA1)
Whole brain minus cerebellum and brainstem from male Long Evans rats (150-200 g) was homogenized in 30 volumes of ice-cold 0.05M Tris-HCl buffer pH 7.7 using a Brinkman Polytron PT-10, (setting number 6 for 20 seconds) and centrifuged for ten minutes at 20,000×g (Sorvall RC-2), 4° C. The supernatant was discarded, and the pellet was resuspended and centrifuged as before. The pellet was resuspended in 20 ml Tris-HCl buffer containing two International Units/ml of adenosine deaminase (Sigma type III from calf intestinal mucosa), incubated at 37° C. for 30 minutes, then subsequently at 0° C. for ten minutes. The homogenate was again centrifuged, and the final pellet was resuspended in ice-cold 0.05M Tris-HCl buffer pH 7.7 to a concentration of 20 mg/ml original wet tissue weight and used immediately.
Tissue homogenate (10 mg/ml) was incubated in 0.05M Tris-HCl buffer pH 7.7 containing 1.0 nM [^3 H]-N^6 -cyclohexyladenosine[^3 H]-CHA) with or without test agents in triplicate for one hour at 25° C. Incubation volume was 2 ml. Unbound [^3 H]-CHA was separated by rapid filtration under reduced pressure through Whatman glass fiber (GF/B) filters. The filters were rinsed three times with 5 ml of ice cold 0.05M Tris-HCl buffer pH 7.7. The radio-labeled ligand retained on the filter was measured by liquid scintillation spectrophotometry after shaking the filters for one hour or longer on a mechanical shaker in 10 ml of Beckman Ready-Solv HP scintillation cocktail.
Nonspecific binding was defined as the binding which occurred in the presence of 1 mM theophylline. The concentration of test agent which inhibited 50% of the specific binding (IC50) was determined by nonlinear computer curve fit. The Scatchard plot was calculated by linear regression of the line obtained by plotting the amount of radioligand bound (pmoles/gram of tissue) [formula] Since the amount of radioligand bound was a small fraction of the total amount added, free radioligand was defined as the concentration (nM) of radioligand added to the incubation mixture. The Hill coefficient was calculated by linear regression of the line obtained by plotting the log of the bound radioligand vs the log of the [formula] The maximal number of binding sites (Bmax) was calculated from the Scatchard plot.

adenosine A2 receptor = target: T2, adenosine A2 receptor (Rattus norvegicus, UniProt P30543); experiment: Adenosine Receptor Binding--A2 Receptor Affinity (RBA2), [3H]NECA binding, rat striatal membranes; parameters: species or system rat (mixed sex Sprague-Dawley; male Long-Evans); conditions: 4 nM [3H]NECA, 50 nM N6-cyclopentyladenosine, 25° C., 60 min
T2 construct: 5 mg original tissue weight of rat weight of rat striatal membranes; tissue Pel-Freez (Rogers, Ark.) for the brains; host or cells: rat striatum (Sprague-Dawley; Long-Evans gave essentially identical results), membranes
Procedure: Adenosine Receptor Binding--A2 Receptor Affinity (RBA2)
Brains from 200-500 g mixed sex Sprague-Dawley rats were purchased from Pel-Freez (Rogers, Ark.). […] Brains were thawed and then kept on ice while the striata were dissected out. Striata were disrupted in 10 vol of ice-cold 50 mM Tris.HCl (pH 7.7 at 25° C., pH 8.26 at 5° C.) (Tris) for 30 seconds in a Polytron PT-10 (Brinkmann) at setting 5. The suspension was centrifuged at 50,000 xg for ten minutes, the supernatant discarded, the pellet resuspended in 10 vol ice-cold Tris as above, recentrifuged, resuspended at 1 g/5 ml, and stored in plastic vials at -70° C. […] When needed, tissue was thawed at room temperature, disrupted in a Polytron, and kept on ice until used.
Test compounds were dissolved at 10 mM in dimethylsulfoxide on the same day as the experiment, and diluted in dimethylsulfoxide to 100× the final incubation concentration. […] [^3 H]NECA was diluted to 40 nM in Tris. […] After all additions, the rack of tubes was vortexed, and the tubes were then incubated for 60 min at 25° C. in a shaking water bath. The rack of tubes was vortexed an additional time halfway through the incubation.
Incubations were terminated by filtration through 2.4 cm GF/B filters under reduced pressure. Each tube was filtered as follows: the contents of the tube were poured onto the filter, 4 ml of ice-cold Tris were added to the tube and the contents poured onto the filter, and the filter was washed twice with 4 ml of ice-cold Tris. The filtration was complete in about twelve seconds. Filters were put in scintillation vials, 8 ml of Formula 947 scintillation fluid added, and the vials left overnight, shaken, and counted in a liquid scintillation counter at 40% efficiency.
The IC50 was calculated by weighted nonlinear least squares curve-fitting to the mass-action equation. [formula] where Y is cpm bound
T is cpm total binding without drug
S is cpm specific binding without drug
D is the concentration of drug
K is the IC50 of the drug
Weighting factors were calculated under the assumption that the standard deviation was proportional to the predicted value of Y. Nonspecific binding was treated as a very large (infinite) concentration of drug in the computer analysis.

[1] = Mouse Activity and Screen Test (MAST), screen test failure (ST); type: in vivo, mouse (Swiss-Webster, male); conditions: Mus musculus, ip; lowest dose at which an A rating is achieved; screen test; intraperitoneal, 1 h prior to testing; read-out: MAST ST LAD
Procedure: Treatments are administered intraperitoneally one hour prior to testing. […] Compounds are dissolved or suspended in 0.2% Methocel. Control animals are injected with Methocel.
The compounds are identified in the Examples.

T2 sequence (P30543 whole entry): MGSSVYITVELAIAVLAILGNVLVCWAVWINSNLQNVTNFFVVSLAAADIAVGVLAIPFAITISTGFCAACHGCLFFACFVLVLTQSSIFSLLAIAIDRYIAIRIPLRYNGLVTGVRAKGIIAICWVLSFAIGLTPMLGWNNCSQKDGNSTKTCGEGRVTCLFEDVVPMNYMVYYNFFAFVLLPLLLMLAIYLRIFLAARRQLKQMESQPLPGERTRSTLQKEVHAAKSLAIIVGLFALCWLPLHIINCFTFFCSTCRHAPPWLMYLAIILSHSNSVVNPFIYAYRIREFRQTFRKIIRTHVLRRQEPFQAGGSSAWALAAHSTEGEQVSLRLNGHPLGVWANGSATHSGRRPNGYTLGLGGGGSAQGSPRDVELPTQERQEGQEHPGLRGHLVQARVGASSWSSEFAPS

## Nc1nc(NCC(O)(c2ccccc2)c2ccccc2)c2ncn([C@@H]3O[C@H](CO)[C@@H](O)[C@H]3O)c2n1 [Example 23, N^6-(2,2-Diphenyl-2-hydroxyethyl)-2-aminoadenosine]
Adenosine A1 receptor
  IC50: 0.069 µM
Adenosine A2 receptor
  IC50: 0.293 µM
[1]
  minimal effective dose: > 100 mg/kg

## COC(=O)C(CNc1ncnc2c1ncn2[C@@H]1O[C@H](CO)[C@@H](O)[C@H]1O)(c1ccccc1)c1ccccc1 [Example 24, N^6-(2-Carbomethoxy-2,2-diphenylethyl)adenosine]
Adenosine A1 receptor
  IC50: 0.079 µM
Adenosine A2 receptor
  IC50: 4.6 µM
[1]
  minimal effective dose: > 30 mg/kg

## CC(=O)OC[C@H]1O[C@@H](n2cnc3c(NCC(c4ccccc4)c4ccccc4)ncnc32)[C@H](OC(C)=O)[C@@H]1OC(C)=O [Example 25, 2',3',5'-Tri-O-acetyl-N^6-(2,2-diphenylethyl)adenosine]
Adenosine A1 receptor
  IC50: 0.053 µM
Adenosine A2 receptor
  IC50: 0.166 µM
[1]
  minimal effective dose: > 100 mg/kg

## O=C(OC[C@H]1O[C@@H](n2cnc3c(NCC(c4ccccc4)c4ccccc4)ncnc32)[C@H](OC(=O)c2ccccc2)[C@@H]1OC(=O)c1ccccc1)c1ccccc1 [Example 26, 2',3',5'-Tri-O-benzoyl-N^6-(2,2-diphenylethyl)adenosine]
Adenosine A1 receptor
  IC50: 1.23 µM
Adenosine A2 receptor
  IC50: 3.84 µM
[1]
  minimal effective dose: > 100 mg/kg

## CC(=O)OC[C@H]1O[C@@H](n2cnc3c(NCC(c4ccccc4)c4ccccc4)nc(Cl)nc32)[C@H](OC(C)=O)[C@@H]1OC(C)=O [Example 27, 2',3',5'-Tri-O-acetyl-N^6-(2,2-diphenylethyl)-2-chloroadenosine]
Adenosine A1 receptor
  IC50: 30.9 µM
Adenosine A2 receptor
  IC50: 6.82 µM
[1]
  minimal effective dose: > 100 mg/kg

## CC1(C)O[C@@H]2[C@H](O1)[C@@H](CO)O[C@H]2n1cnc2c(NCC(c3ccccc3)c3ccccc3)ncnc21 [Example 29, 2',3'-O-Isopropylidene-N^6-(2,2-diphenylethyl)adenosine]
Adenosine A1 receptor
  IC50: 0.242 µM
Adenosine A2 receptor
  IC50: 0.919 µM
[1]
  minimal effective dose: > 100 mg/kg
